Reference: US20240132503A1, “SALT FORM AND CRYSTAL FORM OF PYRAZOLE SUBSTITUTED IMIDAZO[1,2- A]QUINOXALINE DERIVATIVE” (OCUMENSION THERAPEUTICS (SUZHOU) CO., LTD, priority 2021, published 2024)

How the values were obtained:
[1] = biological target: KDR (VEGFR-2) protein kinase (Homo sapiens (Human), UniProt P35968); assay: In vitro evaluation of inhibitory activity against KDR (VEGFR-2) protein kinase (ADP-Glo kinase assay); assay type: biochemical
Source text: The KDR Kinase Kit was designed to use Kinase-Glo® MAX as a teat reagent to measure KDR kinase activity, and the IC50 value of the compound was used as an indicator for compound screening and analysis.
ADP-GLO™ Kinase Assay is an assay reaction for measuring adenosine diphosphate formed by the kinase by using a luminescent kinase; and ADP was converted into ATP, that is, conversion into a light signal via Ultra-Glo™ Luciferase. The light signal was positively correlated with the quantity of ADP and kinase activity. Such assay was very suitable for determining the activity of the compound, making the assay ideal for primary screening and a kinase selectivity assay. The ADP-Glo™ Kinase Assay can be used to monitor the activity of almost all ADP-producing enzymes (for example, a kinase or ATPase): • 1) Enzyme, substrate, ATP and inhibitors were diluted in kinase buffer; • 2) 384-well plate: 1 μL of inhibitor or (5% dimethyl sulfoxide solution) 2 μL of KDR enzyme, and 2 μL of substrate/ATP mixture; • 3) The 384-well plate was incubated at room temperature for 60 minutes; • 4) 5 μL of ADP-GLO™ reagent was added; • 5) The 384-well plate was incubated at room temperature for 40 minutes; • 6) 10 μL of kinase test reagent was added; • 7) The 384-well plate was incubated at room temperature for 30 minutes; • 8) Lumination (integration time: 0.5 to 1 second) was recorded. […]

Syk protein kinase = Syk protein kinase (Homo sapiens (Human), UniProt P43405); assay: In vitro evaluation of inhibitory activity against Syk protein kinase (HTRF KinEASE TK); assay type: biochemical
Source text: Test purpose: to measure an inhibitory IC50 value of the compounds against Syk protein kinase.
Test material: Syk kinase (Invitrogen, PV3857) • DTT (Sigma#43815): dithiothreitol • ATP (Sigma#A7699): triphosadenine • MgCl2 (Sigma#63020): magnesium chloride • MnCl2 (Sigma#M1787): manganese chloride • EDTA (Invitrogen#15575-020): ethylenediaminetetraacetic acid • HEPES Buffer (Invitrogen#15630-080): zwitterionic sulfonic acid buffer • HTRF® KinEASE™ TK (Cisbio#62TK0PEC, 20000 tests): HTRF kinase kit • Low volume, 384-well, white polystyrene plate (Greiner#784075) • 384-well microplates (Greiner#781946) • Centrifuge (Eppendorf#5810R) • Micropipette (Eppendorf) • Pipette (Greiner) • Pipettor (Eppendorf) • Mutidorp injector • POD 810 Plate Assembler Fully Automatic Microplate Pretreatment System • Envision Reader […]

Sequence of KDR (VEGFR-2) protein kinase (P35968 20-1356): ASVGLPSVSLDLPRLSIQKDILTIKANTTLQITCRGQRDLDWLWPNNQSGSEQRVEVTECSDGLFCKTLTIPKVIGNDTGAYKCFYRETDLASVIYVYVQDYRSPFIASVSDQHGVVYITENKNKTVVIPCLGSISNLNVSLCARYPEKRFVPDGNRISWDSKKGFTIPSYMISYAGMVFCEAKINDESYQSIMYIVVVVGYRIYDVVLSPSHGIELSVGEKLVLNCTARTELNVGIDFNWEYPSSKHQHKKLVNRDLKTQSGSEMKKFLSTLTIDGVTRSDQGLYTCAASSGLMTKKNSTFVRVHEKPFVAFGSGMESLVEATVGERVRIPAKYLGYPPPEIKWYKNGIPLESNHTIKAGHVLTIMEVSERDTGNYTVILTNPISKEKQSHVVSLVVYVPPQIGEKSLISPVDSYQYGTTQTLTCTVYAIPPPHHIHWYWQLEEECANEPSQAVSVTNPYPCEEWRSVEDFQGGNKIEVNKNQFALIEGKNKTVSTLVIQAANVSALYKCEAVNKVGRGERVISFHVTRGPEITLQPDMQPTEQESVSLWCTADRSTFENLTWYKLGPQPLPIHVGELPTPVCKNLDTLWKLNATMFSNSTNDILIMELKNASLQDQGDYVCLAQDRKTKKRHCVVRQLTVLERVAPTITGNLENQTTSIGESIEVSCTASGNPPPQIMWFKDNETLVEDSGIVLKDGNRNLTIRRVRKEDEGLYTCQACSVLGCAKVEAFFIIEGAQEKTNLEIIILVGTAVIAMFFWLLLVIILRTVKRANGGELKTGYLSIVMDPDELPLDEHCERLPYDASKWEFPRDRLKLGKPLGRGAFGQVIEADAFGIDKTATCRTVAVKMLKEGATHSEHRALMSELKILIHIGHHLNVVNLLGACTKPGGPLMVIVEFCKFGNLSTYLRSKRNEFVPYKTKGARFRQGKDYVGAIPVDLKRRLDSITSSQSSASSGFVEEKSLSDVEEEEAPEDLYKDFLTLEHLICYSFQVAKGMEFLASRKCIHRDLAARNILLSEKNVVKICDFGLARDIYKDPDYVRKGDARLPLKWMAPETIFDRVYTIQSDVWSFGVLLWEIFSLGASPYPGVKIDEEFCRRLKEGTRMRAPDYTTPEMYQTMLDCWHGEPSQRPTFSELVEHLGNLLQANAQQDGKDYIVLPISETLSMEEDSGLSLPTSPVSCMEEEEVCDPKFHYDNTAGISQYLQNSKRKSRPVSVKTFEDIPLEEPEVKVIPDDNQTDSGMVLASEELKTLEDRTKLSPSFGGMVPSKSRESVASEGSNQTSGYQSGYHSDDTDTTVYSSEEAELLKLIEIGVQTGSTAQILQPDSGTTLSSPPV

For c1cn2c(n1)c(Nc1ccc(N3CCOCC3)cc1)nc1ccc(-c3cn[nH]c3)cc12, the IC50 [1] was 28 nM, the “inhibitory activity against KDR (VEGFR-2)” value ([1]; conclusion in words) was “good inhibitory activity” and the IC50 (Syk protein kinase; ATP 2 μM) was 25 nM. The “inhibitory activity against Syk” value (Syk protein kinase; conclusion in words) was “good inhibitory activity”.
